Data as given in ChEMBL document CHEMBL2074091, “Transport of methotrexate, methotrexate polyglutamates, and 17beta-estradiol 17-(beta-D-glucuronide) by ABCG2: effects of acquired mutations at R482 on methotrexate transport” (Cancer Res, 2003).

Tests used:
Format in all cases: functional, cell membranes
[1] = biological target: T1, Broad substrate specificity ATP-binding cassette transporter ABCG2 (Homo sapiens, UniProt Q9UNQ0); test: (§1) TP_TRANSPORTER: uptake (vesicle) in membrane vesicle from ABCG2-R482-expressing HEK293 cells; details: hek293
T1 sequence (Q9UNQ0 whole entry): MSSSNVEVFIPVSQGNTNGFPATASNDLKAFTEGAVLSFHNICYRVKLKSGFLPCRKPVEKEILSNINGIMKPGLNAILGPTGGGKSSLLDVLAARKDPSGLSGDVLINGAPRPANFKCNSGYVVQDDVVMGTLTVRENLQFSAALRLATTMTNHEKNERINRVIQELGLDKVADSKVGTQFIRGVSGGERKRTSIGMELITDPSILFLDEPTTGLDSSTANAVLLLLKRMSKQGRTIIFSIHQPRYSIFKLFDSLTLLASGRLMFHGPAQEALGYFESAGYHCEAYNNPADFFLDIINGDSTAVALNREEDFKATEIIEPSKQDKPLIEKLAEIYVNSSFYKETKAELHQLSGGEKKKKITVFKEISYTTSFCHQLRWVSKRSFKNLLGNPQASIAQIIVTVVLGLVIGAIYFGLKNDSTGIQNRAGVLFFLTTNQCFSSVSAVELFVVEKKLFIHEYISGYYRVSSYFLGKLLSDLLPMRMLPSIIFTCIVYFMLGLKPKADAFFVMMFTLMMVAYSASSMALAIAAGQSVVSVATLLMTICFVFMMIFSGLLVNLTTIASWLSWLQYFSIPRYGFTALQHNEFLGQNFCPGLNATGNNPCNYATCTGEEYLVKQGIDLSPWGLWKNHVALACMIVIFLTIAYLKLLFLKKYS

[2] = biological target: Multidrug resistance associated protein (Homo sapiens) (UniProt Q96QA9); test: TP_TRANSPORTER: uptake (vesicle) in membrane vesicles from MRP3-expressing HEK293 cells
Sequence of Multidrug resistance associated protein (Homo sapiens) (Q96QA9 as listed by the source): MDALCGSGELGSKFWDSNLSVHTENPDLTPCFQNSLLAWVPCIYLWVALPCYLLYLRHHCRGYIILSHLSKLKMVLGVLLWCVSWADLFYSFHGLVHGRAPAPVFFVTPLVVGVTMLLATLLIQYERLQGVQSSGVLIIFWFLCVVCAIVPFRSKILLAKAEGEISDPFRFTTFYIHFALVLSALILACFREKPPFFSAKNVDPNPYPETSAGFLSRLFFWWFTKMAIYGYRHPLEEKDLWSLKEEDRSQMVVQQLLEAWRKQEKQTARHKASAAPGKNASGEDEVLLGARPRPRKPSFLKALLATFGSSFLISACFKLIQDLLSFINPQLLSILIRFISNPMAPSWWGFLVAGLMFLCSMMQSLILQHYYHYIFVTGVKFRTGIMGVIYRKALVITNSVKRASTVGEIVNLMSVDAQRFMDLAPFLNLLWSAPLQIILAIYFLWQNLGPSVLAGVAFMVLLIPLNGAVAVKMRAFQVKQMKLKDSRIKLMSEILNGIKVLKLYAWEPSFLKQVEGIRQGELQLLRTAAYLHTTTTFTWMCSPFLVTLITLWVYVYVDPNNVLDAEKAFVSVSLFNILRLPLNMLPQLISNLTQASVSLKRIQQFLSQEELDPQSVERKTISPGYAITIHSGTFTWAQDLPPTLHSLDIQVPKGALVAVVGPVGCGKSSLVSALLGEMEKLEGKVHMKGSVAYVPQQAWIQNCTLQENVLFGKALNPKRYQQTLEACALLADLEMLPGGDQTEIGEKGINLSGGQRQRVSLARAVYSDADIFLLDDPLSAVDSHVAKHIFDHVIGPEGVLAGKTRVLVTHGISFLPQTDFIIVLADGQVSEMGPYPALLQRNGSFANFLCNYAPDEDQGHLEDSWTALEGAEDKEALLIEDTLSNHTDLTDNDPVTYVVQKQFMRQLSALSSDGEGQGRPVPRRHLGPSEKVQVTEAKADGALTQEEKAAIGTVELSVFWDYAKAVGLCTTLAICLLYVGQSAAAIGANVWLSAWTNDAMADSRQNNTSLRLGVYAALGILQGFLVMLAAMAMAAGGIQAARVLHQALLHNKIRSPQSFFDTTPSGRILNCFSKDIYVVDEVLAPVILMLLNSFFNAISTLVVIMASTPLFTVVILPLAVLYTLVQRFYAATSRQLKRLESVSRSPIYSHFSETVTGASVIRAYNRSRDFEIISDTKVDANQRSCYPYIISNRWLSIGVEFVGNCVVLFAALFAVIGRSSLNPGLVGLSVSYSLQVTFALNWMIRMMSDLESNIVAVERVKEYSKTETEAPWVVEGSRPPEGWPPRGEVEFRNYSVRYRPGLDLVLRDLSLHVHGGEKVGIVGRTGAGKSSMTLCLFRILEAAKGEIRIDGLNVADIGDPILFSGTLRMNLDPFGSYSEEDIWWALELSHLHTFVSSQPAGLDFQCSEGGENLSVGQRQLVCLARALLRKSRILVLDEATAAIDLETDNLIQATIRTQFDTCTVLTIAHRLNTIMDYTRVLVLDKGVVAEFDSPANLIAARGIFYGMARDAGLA

[3] = biological target: ATP-binding cassette sub-family C member 2 (Homo sapiens, UniProt Q92887); test: TP_TRANSPORTER: uptake (vesicle) in membrane vesicle from MRP2-expressing HEK293 cells
Sequence of ATP-binding cassette sub-family C member 2 (Q92887 whole entry): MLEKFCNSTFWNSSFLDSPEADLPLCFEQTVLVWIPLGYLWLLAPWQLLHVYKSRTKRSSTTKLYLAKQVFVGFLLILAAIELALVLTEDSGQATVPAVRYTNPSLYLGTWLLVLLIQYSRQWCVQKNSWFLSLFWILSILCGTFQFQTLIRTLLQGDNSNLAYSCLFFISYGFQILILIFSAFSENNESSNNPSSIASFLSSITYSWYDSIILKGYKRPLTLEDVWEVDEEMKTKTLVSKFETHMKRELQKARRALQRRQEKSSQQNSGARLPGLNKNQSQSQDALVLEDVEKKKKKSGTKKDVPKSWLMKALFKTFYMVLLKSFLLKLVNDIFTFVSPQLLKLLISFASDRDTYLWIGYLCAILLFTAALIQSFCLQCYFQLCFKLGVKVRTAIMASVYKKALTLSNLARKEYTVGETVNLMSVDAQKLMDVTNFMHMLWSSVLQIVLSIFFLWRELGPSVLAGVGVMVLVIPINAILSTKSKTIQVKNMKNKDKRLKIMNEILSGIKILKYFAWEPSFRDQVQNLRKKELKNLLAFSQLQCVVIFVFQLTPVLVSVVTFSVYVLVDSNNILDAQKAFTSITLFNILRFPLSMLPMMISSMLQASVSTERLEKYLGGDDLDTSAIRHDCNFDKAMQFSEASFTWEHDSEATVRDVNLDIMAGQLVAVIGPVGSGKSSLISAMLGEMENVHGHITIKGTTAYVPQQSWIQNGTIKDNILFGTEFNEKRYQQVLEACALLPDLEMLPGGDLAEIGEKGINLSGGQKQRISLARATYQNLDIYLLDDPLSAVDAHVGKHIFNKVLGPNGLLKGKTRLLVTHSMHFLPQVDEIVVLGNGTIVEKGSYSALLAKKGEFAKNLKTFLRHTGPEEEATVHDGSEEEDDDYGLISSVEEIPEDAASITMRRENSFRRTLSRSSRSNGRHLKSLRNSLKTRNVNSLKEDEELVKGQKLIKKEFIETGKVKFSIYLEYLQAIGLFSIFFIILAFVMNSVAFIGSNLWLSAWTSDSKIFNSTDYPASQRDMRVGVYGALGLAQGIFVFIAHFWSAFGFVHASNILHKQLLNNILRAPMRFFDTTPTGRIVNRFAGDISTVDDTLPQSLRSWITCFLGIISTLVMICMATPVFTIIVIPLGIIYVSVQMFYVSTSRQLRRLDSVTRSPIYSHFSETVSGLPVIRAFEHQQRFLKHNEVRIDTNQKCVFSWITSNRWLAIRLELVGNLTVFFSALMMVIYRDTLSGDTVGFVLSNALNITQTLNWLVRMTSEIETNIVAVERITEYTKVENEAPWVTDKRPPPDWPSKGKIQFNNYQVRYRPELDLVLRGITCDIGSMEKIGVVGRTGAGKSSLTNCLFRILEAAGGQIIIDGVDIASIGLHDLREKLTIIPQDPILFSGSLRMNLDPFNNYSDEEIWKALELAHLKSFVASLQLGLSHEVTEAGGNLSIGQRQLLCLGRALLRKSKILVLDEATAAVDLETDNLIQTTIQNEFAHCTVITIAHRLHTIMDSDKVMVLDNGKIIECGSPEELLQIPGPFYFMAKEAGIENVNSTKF

[4] = biological target: T2, ABCG2 (R482) (Homo sapiens, UniProt Q9UNQ0); test: as §1; details: membrane vesicles from ABCG2-R482-expressing HEK293 cells
T2 sequence (Q9UNQ0 whole entry): T1 sequence (Q9UNQ0 whole entry)

Row | Activity [1] | Structure (SMILES) | other results
1 | substrate [] | Nc1nc2ncc(CNc3ccc(C(=O)N[C@@H](CCC(=O)O)C(=O)O)cc3)nc2c(=O)[nH]1 [FOLIC ACID] | 
2 |  | Nc1nc(=O)c2c([nH]1)NCC(CNc1ccc(C(=O)N[C@@H](CCC(=O)O)C(=O)O)cc1)N2C=O (some centres not stated) | Activity [2]: substrate []
3 |  | Nc1nc2c(c(=O)[nH]1)N(C=O)C(CNc1ccc(C(=O)N[C@@H](CCC(=O)O)C(=O)O)cc1)CN2 (some centres not stated) [LEUCOVORIN] | Activity [3]: substrate []
4 | substrate [] | CN(Cc1cnc2nc(N)nc(N)c2n1)c1ccc(C(=O)N[C@@H](CCC(=O)N[C@@H](CCC(=O)N[C@@H](CCC(=O)O)C(=O)O)C(=O)O)C(=O)O)cc1 | 
5 |  | CN(Cc1cnc2nc(N)nc(N)c2n1)c1ccc(C(=O)N[C@@H](CCC(=O)O)C(=O)O)cc1 [METHOTREXATE] | Km [4]: 1300 µM
6 | substrate [] | CN(Cc1cnc2nc(N)nc(N)c2n1)c1ccc(C(=O)N[C@@H](CCC(=O)N[C@@H](CCC(=O)N[C@@H](CCC(=O)N[C@@H](CCC(=O)O)C(=O)O)C(=O)O)C(=O)O)C(=O)O)cc1 | 

Row | Structure (SMILES) | Activity [1] | other results
7 | C[C@]12CC[C@@H]3c4ccc(O)cc4CC[C@H]3[C@@H]1CC[C@@H]2O[C@@H]1O[C@H](C(=O)O)[C@@H](O)[C@H](O)[C@H]1O [ESTRADIOL 17B GLUCURONIDE] | substrate [] | 
